Data reported in the supplement of paper PMC11628255, “Interference of metal ions on the bioluminescent signal of firefly, Renilla, and NanoLuc luciferases in high-throughput screening assays” (Frontiers in Chemistry, 2024).
± gives the standard deviation of the averaged measurements.

Legend:
Assay in all cases: normalised percent inhibition of luminescence (vs positive and negative controls); higher = stronger inhibition
[1] = test system: NanoLuc luciferase (NLuc)
Procedure: (§1)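 Concentration-response (>=11 concentrations) of metal salts on purified FLuc, NLuc or RLuc luminescence in screening (SC) or 100 mM HEPES (H) buffer; salt pre-incubated with enzyme 10 min at RT, read 10 min after substrate. Normalised percent inhibition vs plate positive (PTC-124, isradipine, BTS) and DMSO negative controls; triplicate wells.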

[2] = test system: Renilla luciferase (RLuc)
Procedure: as §1

[3] = test system: firefly luciferase (FLuc)
Procedure: as §1

[Cl][Pt-2]([Cl])([Cl])[Cl].[K+].[K+] [potassium tetrachloroplatinate(II)]
normalised percent inhibition [%]
Settings	[1]	[2]	[3]
metal salt concentration 0.0001 mM, 100 mM HEPES buffer	1.21 ± 6.3	6.41 ± 13	-10.3 ± 14
metal salt concentration 0.00025 mM, 100 mM HEPES buffer	-0.51 ± 2.1	4.68 ± 16	4.97 ± 14
metal salt concentration 0.0005 mM, 100 mM HEPES buffer	2.19 ± 0.21	-6.41 ± 1.1	6.27 ± 23
metal salt concentration 0.001 mM, 100 mM HEPES buffer	0.76 ± 1.2	-11.3 ± 12	12.9 ± 5
metal salt concentration 0.002 mM, screening conditions buffer	6.88 ± 2.2	13.4 ± 6.2	23.2 ± 18
metal salt concentration 0.005 mM, screening conditions buffer	2.83 ± 7.4	5.74 ± 9.8	28.2 ± 14
metal salt concentration 0.01 mM, screening conditions buffer	1.24 ± 5.6	8.68 ± 1.2	32.2 ± 10
metal salt concentration 0.02 mM, screening conditions buffer	5.06 ± 1.3	2.57 ± 5.2	39.4 ± 9.2
metal salt concentration 0.025 mM, 100 mM HEPES buffer	4.56 ± 2.9	8.38 ± 2.1	39.2 ± 5.7
metal salt concentration 0.05 mM, 100 mM HEPES buffer	10.3 ± 3.5	-3.94 ± 13	56.4 ± 4.2
metal salt concentration 0.05 mM, screening conditions buffer	18.1 ± 3.8	19.4 ± 3.4	68.7 ± 7.4
metal salt concentration 0.1 mM, 100 mM HEPES buffer	15.1 ± 4.1	5.67 ± 12	79.8 ± 4.1
metal salt concentration 0.1 mM, screening conditions buffer	41.9 ± 8.1	27.8 ± 2.8	86 ± 3.3
metal salt concentration 0.2 mM, screening conditions buffer	60.3 ± 5.5	41.3 ± 8.9	98.8 ± 1
metal salt concentration 0.5 mM, 100 mM HEPES buffer	76.6 ± 2.7	40.7 ± 15	100.5 ± 0.56
metal salt concentration 0.5 mM, screening conditions buffer	91.6 ± 2.5	66.7 ± 7	100.5 ± 0.44
metal salt concentration 1 mM, 100 mM HEPES buffer	87.7 ± 3.4	69.3 ± 4.8	100.2 ± 0.86
metal salt concentration 1 mM, screening conditions buffer	116 ± 1.7	95.3 ± 9.6	99.57 ± 0.77
metal salt concentration 2.5 mM, 100 mM HEPES buffer	93.7 ± 1.2	97.4 ± 5.5	100.4 ± 0.49
metal salt concentration 2.5 mM, screening conditions buffer	129.7 ± 0.94	105.3 ± 0.77	100.7 ± 0.14
metal salt concentration 5 mM, 100 mM HEPES buffer	96.98 ± 0.93	106	100.4 ± 0.37
metal salt concentration 5 mM, screening conditions buffer	134.6 ± 0.32	106.2 ± 0.36	100.8 ± 0.22

O=S(=O)([O-])[O-].[Fe+2] [iron(II) sulfate]
normalised percent inhibition [%]
Settings	[1]	[2]	[3]
metal salt concentration 0.0001 mM, 100 mM HEPES buffer	-2.4 ± 0.95	41.8 ± 57	-15.4 ± 19
metal salt concentration 0.00025 mM, 100 mM HEPES buffer	0.242 ± 1.3	-25.1 ± 17	-21.3 ± 21
metal salt concentration 0.0005 mM, 100 mM HEPES buffer	3.64 ± 1.7	-18.6 ± 45	-14.6 ± 9.3
metal salt concentration 0.001 mM, 100 mM HEPES buffer	0.251 ± 4.1	-4.06 ± 18	25.9 ± 67
metal salt concentration 0.002 mM, screening conditions buffer	-6.27 ± 4.7	2.02 ± 10	1.35 ± 17
metal salt concentration 0.005 mM, screening conditions buffer	5.45 ± 5.8	11 ± 4.1	9.94 ± 12
metal salt concentration 0.01 mM, screening conditions buffer	3.08 ± 4.9	18.2 ± 2.5	4.1 ± 16
metal salt concentration 0.02 mM, screening conditions buffer	7.25 ± 4.3	17.5 ± 9.7	6.54 ± 4.6
metal salt concentration 0.025 mM, 100 mM HEPES buffer	3.97 ± 5	28.6 ± 12	62.5 ± 8.3
metal salt concentration 0.05 mM, 100 mM HEPES buffer	6.24 ± 1.8	50.9 ± 12	100.1 ± 0.94
metal salt concentration 0.05 mM, screening conditions buffer	11.5 ± 2.6	3.55 ± 9.2	7.51 ± 17
metal salt concentration 0.1 mM, 100 mM HEPES buffer	19.9 ± 2.1	85.8 ± 11	99.99 ± 0.56
metal salt concentration 0.1 mM, screening conditions buffer	37.5 ± 3	58.5 ± 6.4	-0.76 ± 26
metal salt concentration 0.2 mM, screening conditions buffer	49.5 ± 7.2	74.4 ± 2.4	28.7 ± 16
metal salt concentration 0.5 mM, 100 mM HEPES buffer	67.9 ± 3.6	104.9 ± 0.56	100.2 ± 0.56
metal salt concentration 0.5 mM, screening conditions buffer	81.1 ± 2	93.3 ± 5.9	94.1 ± 5.9
metal salt concentration 1 mM, 100 mM HEPES buffer	87.7 ± 2.2	105 ± 3.1	100.3 ± 0.16
metal salt concentration 1 mM, screening conditions buffer	138 ± 2.5	96 ± 1.3	99.42 ± 0.97
metal salt concentration 2.5 mM, 100 mM HEPES buffer	101 ± 0.26	104 ± 3	100.2 ± 0.16
metal salt concentration 2.5 mM, screening conditions buffer	157.3 ± 1.2	103.6 ± 0.89	100.4 ± 0.49
metal salt concentration 5 mM, 100 mM HEPES buffer	101.93 ± 0.031	107 ± 1.1	100.2 ± 0.41
metal salt concentration 5 mM, screening conditions buffer	158.9 ± 1.2	105 ± 1.6	101.2 ± 0.28

O=[N+]([O-])[O-].O=[N+]([O-])[O-].[Zn+2] [zinc nitrate]
normalised percent inhibition [%]
Settings	[1]	[2]	[3]
metal salt concentration 10 nM, 100 mM HEPES buffer	–	–	16.5 ± 1.9
metal salt concentration 50 nM, 100 mM HEPES buffer	–	–	-0.254 ± 9.7
metal salt concentration 0.0001 mM, 100 mM HEPES buffer	–	–	-1.38 ± 27
metal salt concentration 0.00025 mM, 100 mM HEPES buffer	–	–	5.03 ± 18
metal salt concentration 0.0005 mM, 100 mM HEPES buffer	–	–	35.7 ± 11
metal salt concentration 0.001 mM, 100 mM HEPES buffer	–	–	47.4 ± 13
metal salt concentration 0.002 mM, screening conditions buffer	0.728 ± 3.3	-5.83 ± 5.5	21.1 ± 28
metal salt concentration 0.005 mM, screening conditions buffer	-0.897 ± 5.4	-7.07 ± 11	16.4 ± 15
metal salt concentration 0.01 mM, screening conditions buffer	10.7 ± 4.8	-4.95 ± 6.5	20.5 ± 20
metal salt concentration 0.02 mM, screening conditions buffer	7.25 ± 7.2	-5.53 ± 0.89	17.9 ± 15
metal salt concentration 0.025 mM, 100 mM HEPES buffer	–	–	86.7 ± 4.5
metal salt concentration 0.05 mM, 100 mM HEPES buffer	–	–	92.6 ± 3.1
metal salt concentration 0.05 mM, screening conditions buffer	35.8 ± 7	-2.83 ± 13	11.7 ± 13
metal salt concentration 0.1 mM, 100 mM HEPES buffer	–	–	96.3 ± 1.4
metal salt concentration 0.1 mM, screening conditions buffer	66 ± 15	-8.31 ± 7.2	28.6 ± 18
metal salt concentration 0.2 mM, screening conditions buffer	78.9 ± 2.5	-2.75 ± 4.6	15 ± 18
metal salt concentration 0.5 mM, 100 mM HEPES buffer	–	–	100.2 ± 0.33
metal salt concentration 0.5 mM, screening conditions buffer	77 ± 14	-0.599 ± 11	29.1 ± 5.4
metal salt concentration 1 mM, 100 mM HEPES buffer	–	–	100.1 ± 0.51
metal salt concentration 1 mM, screening conditions buffer	89 ± 11	8.71 ± 11	46.4 ± 13
metal salt concentration 2.5 mM, 100 mM HEPES buffer	–	–	100.4 ± 0.27
metal salt concentration 2.5 mM, screening conditions buffer	111 ± 26	-1 ± 8.9	100.6 ± 1
metal salt concentration 5 mM, 100 mM HEPES buffer	–	–	100.2 ± 0.31
metal salt concentration 5 mM, screening conditions buffer	126 ± 30	85.5 ± 9.5	100.2 ± 0.28

O.O.O.O.O.O.O.O=S(=O)([O-])[O-].[Mg+2] [magnesium sulfate]
normalised percent inhibition [%], 100 mM HEPES buffer
Settings	[1]	[2]	[3]
metal salt concentration 0.0001 mM	6.62 ± 5.2	-6.9 ± 26	-19.2 ± 9.8
metal salt concentration 0.00025 mM	1.39 ± 2.5	-4.68 ± 19	-27.4 ± 15
metal salt concentration 0.0005 mM	-0.0243 ± 2.5	-11.6 ± 9.2	-11 ± 16
metal salt concentration 0.001 mM	-0.202 ± 2.1	-17 ± 8.5	-24 ± 12
metal salt concentration 0.025 mM	-2.3 ± 2.2	-30.1 ± 5	-31.5 ± 17
metal salt concentration 0.05 mM	0.502 ± 4.4	-11.6 ± 8.6	-6.49 ± 17
metal salt concentration 0.1 mM	1.8 ± 6	-22.7 ± 9.3	-20 ± 13
metal salt concentration 0.5 mM	1.22 ± 2	-0.986 ± 12	-19.2 ± 16
metal salt concentration 1 mM	-4.91 ± 2.9	-23.4 ± 23	-17.2 ± 16
metal salt concentration 2.5 mM	-6.56 ± 2.5	-40.4 ± 7.5	-12.5 ± 12
metal salt concentration 5 mM	-5.03 ± 1.5	-22.4 ± 16	4.85 ± 15

[Cl][Fe][Cl] [iron(II) chloride]
normalised percent inhibition [%]
Settings	[1]	[2]	[3]
metal salt concentration 0.0001 mM, 100 mM HEPES buffer	-0.558 ± 2.3	-50 ± 17	-43.3 ± 4.8
metal salt concentration 0.00025 mM, 100 mM HEPES buffer	-2.01 ± 4.6	-20.5 ± 28	-33.6 ± 25
metal salt concentration 0.0005 mM, 100 mM HEPES buffer	-2.14 ± 1.8	-32.5 ± 6.8	-33.5 ± 6.4
metal salt concentration 0.001 mM, 100 mM HEPES buffer	-0.324 ± 3.7	-19.3 ± 6.2	-45.9 ± 26
metal salt concentration 0.002 mM, screening conditions buffer	-2.42 ± 2.8	-4.21 ± 7.8	-3.52 ± 20
metal salt concentration 0.005 mM, screening conditions buffer	1.43 ± 8.8	1.72 ± 8.3	1.02 ± 24
metal salt concentration 0.01 mM, screening conditions buffer	5.7 ± 1.8	-1.72 ± 4.7	2 ± 14
metal salt concentration 0.02 mM, screening conditions buffer	-0.122 ± 6.1	16.1 ± 9.5	1.67 ± 19
metal salt concentration 0.025 mM, 100 mM HEPES buffer	3.65 ± 3.3	16.3 ± 3.9	53.6 ± 2.7
metal salt concentration 0.05 mM, 100 mM HEPES buffer	5.35 ± 0.67	43.1 ± 16	99.99 ± 0.87
metal salt concentration 0.05 mM, screening conditions buffer	-5.75 ± 4.8	-2.31 ± 8.4	3.62 ± 24
metal salt concentration 0.1 mM, 100 mM HEPES buffer	17.2 ± 3.2	86.8 ± 4.5	100.4 ± 0.27
metal salt concentration 0.1 mM, screening conditions buffer	22.5 ± 7	54.2 ± 5.8	14.5 ± 11
metal salt concentration 0.2 mM, screening conditions buffer	40.4 ± 7.6	71.6 ± 2.6	22.9 ± 12
metal salt concentration 0.5 mM, 100 mM HEPES buffer	61.9 ± 9.7	105 ± 3.9	99.99 ± 0.63
metal salt concentration 0.5 mM, screening conditions buffer	64 ± 7.3	84.8 ± 5.6	98 ± 4.6
metal salt concentration 1 mM, 100 mM HEPES buffer	85.4 ± 2.2	103 ± 2.6	100.5 ± 0.31
metal salt concentration 1 mM, screening conditions buffer	96 ± 10	93.3 ± 3.1	100.7 ± 0.28
metal salt concentration 2.5 mM, 100 mM HEPES buffer	99.74 ± 0.49	108.1 ± 0.56	100.2 ± 0.56
metal salt concentration 2.5 mM, screening conditions buffer	151 ± 3.3	105 ± 2	99.42 ± 0.97
metal salt concentration 5 mM, 100 mM HEPES buffer	101.7 ± 0.26	108 ± 1.1	100.3 ± 0.41
metal salt concentration 5 mM, screening conditions buffer	160.2 ± 0.5	106 ± 0.51	100.9 ± 0.84
